Values quoted from earlier work as cited in patent US20070048371A1, “Pharmaceutical formulations/composition of guanfacine suitable for single dose form administration daily” (priority 2005, published 2007).
Structures can show the parent of a compound that is named as a salt.

Conditions: white to off-white powder; cited from earlier work

## N=C(N)NC(=O)Cc1c(Cl)cccc1Cl [Guanfacine hydrochloride, N-amidino-2-(2,6-dichlorophenyl) acetamide hydrochloride]
  solubility in acetone: slightly soluble
  solubility in water and alcohol: sparingly soluble
